For one data set, the target named is T1, Interstitial collagenase (Homo sapiens, UniProt P03956).
T1 sequence (P03956 whole entry): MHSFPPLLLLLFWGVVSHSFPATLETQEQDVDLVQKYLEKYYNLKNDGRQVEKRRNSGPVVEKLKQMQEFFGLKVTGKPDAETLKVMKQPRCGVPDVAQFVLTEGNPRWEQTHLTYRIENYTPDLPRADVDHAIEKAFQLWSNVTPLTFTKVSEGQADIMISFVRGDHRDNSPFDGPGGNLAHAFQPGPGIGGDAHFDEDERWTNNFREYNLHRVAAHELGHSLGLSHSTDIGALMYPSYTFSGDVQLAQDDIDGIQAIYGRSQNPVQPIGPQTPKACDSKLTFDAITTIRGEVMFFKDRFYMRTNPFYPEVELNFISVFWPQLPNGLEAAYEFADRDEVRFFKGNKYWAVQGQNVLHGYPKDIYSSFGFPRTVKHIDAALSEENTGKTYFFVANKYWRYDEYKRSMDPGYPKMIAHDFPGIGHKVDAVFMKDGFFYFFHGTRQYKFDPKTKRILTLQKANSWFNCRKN
The experiment in a line: Inhibitory activity against matrix metalloprotease-1 (MMP-1).

For data set [1], the target named is 72 kDa type IV collagenase (Homo sapiens, UniProt P08253). Description: Inhibitory activity against matrix metalloprotease-2 (MMP-2).
For data set [2], the target named is Matrix metalloproteinase-9 (Homo sapiens, UniProt P14780). The experiment in a line: Inhibitory activity against matrix metalloprotease-9 (MMP-9).
The nature of data set [3]: Solubility was determined.
Data set [4] has as its target Disintegrin and metalloproteinase domain-containing protein 17 (Sus scrofa, UniProt O77636). The experiment in a line: In vitro binding affinity against porcine TACE.
The species named for a further data set is Homo sapiens. The experiment in a line: In vitro inhibition of TNF-alpha production was determined by using LPS-stimulated human whole blood assay (WBA). The class given is functional.
The next data set relates to Caco-2. As to conditions: Homo sapiens.

In brackets after ≈: the same amount, converted by molar mass. Some results are limits rather than exact numbers.

For orientation: Ki means a dissociation constant, usually derived from enzyme kinetics or from competition with a known ligand. Higher therefore signals weaker binding. As usually defined, the solubility is the dissolved amount per volume that the medium holds. As a reminder, the IC50 is the point on the concentration scale where inhibition reaches its midpoint. A low value points to greater potency. In general, Papp refers to the rate of passage across a membrane or cell layer, normalised by area and donor concentration.

Disintegrin and metalloproteinase domain-containing protein 17, sequence (O77636 whole entry, the tested form may be a part): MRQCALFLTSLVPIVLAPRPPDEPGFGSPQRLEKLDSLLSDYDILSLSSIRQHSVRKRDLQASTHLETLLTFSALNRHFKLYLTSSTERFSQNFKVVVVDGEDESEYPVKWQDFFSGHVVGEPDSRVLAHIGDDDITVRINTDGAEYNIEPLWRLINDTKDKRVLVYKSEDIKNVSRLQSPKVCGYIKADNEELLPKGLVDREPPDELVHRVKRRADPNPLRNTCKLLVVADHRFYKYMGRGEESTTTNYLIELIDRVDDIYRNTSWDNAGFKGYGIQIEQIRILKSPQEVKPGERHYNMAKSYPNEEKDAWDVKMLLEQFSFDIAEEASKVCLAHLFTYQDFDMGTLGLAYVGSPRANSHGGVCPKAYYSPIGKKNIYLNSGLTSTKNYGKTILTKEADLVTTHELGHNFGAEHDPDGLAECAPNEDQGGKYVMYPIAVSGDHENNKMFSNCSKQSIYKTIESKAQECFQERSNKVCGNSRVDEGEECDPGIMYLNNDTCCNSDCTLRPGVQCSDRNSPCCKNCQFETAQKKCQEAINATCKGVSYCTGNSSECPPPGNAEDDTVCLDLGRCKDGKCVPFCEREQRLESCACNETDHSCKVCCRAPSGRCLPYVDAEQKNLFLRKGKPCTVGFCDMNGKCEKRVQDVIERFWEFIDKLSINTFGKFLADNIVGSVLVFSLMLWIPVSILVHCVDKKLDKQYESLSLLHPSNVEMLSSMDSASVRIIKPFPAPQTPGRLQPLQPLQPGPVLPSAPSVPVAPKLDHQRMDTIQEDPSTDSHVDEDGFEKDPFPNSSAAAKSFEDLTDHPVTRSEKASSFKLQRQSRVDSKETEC
Matrix metalloproteinase-9, sequence (P14780 whole entry): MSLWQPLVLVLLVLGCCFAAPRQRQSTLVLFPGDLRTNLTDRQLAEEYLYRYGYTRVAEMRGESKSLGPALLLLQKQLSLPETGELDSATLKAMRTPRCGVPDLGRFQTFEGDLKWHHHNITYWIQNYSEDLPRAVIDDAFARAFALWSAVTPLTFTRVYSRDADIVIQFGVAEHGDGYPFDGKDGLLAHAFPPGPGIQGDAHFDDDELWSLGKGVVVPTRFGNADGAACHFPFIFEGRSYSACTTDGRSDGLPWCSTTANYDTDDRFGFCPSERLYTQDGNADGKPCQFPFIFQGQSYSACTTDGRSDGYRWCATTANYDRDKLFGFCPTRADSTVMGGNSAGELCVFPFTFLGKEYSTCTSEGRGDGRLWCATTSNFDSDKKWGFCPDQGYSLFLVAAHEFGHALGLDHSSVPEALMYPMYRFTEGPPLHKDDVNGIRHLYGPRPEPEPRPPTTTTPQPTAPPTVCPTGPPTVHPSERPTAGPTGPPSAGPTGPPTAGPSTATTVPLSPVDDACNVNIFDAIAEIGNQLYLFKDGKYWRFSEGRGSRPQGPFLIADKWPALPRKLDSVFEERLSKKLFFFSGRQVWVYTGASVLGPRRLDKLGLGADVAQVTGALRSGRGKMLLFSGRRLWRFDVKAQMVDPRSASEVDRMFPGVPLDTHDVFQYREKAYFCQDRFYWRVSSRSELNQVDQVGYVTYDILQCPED
72 kDa type IV collagenase, sequence (P08253 whole entry): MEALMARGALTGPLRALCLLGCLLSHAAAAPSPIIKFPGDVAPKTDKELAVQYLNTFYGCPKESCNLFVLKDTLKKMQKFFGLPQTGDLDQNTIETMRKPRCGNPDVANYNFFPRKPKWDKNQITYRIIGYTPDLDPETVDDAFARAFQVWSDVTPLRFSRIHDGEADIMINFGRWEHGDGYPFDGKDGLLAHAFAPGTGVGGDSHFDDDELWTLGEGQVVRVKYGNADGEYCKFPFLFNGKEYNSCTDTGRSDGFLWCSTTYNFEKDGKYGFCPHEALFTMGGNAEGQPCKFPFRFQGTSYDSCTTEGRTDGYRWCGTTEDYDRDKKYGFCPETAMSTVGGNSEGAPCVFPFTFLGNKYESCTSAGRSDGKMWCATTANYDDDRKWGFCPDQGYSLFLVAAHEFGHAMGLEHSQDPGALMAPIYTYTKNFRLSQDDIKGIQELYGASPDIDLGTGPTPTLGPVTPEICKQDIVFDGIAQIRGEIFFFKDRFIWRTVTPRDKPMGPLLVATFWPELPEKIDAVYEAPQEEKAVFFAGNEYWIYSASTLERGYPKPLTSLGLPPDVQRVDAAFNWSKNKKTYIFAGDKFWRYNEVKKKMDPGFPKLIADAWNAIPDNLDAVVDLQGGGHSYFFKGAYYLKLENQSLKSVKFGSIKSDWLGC
Description for Caco-2: Caco-2 permeability was determined

As for `Cc1cc(COc2ccc(NC(=O)[C@H]3CN(CC4CC4)CC[C@@H]3C(=O)NO)cc2)c2ccccc2n1`, the inhibition constant Ki at Interstitial collagenase is over 4950 nM; in data set [1] it was over 3330 nM; in data set [2], over 2130 nM. In data set [3], this molecule yielded a solubility of over 10000 µg/mL. Further, the IC50 in data set [4] is 1 nM; in the data set filed under Homo sapiens, 300 nM.
In the case of `O=C(NO)[C@H]1CN(C(=O)C2CC2)CC[C@@H]1C(=O)Nc1ccc(OCc2ccnc3ccccc23)cc1`, the values for the Ki (at Interstitial collagenase; in data set [1]; in data set [2]) were over 4950 nM, over 3330 nM and over 2130 nM, respectively. The IC50 was 1 nM in data set [4] and 1300 nM in the data set listed under Homo sapiens.
Turning to `CCN1CCC[C@H](C(=O)NO)[C@H]1C(=O)Nc1ccc(OCc2cc(C)nc3ccccc23)cc1`, the Ki on Interstitial collagenase was over 4950 nM; in data set [1], over 3330 nM; in data set [2] it was over 2130 nM. This molecule had a solubility in data set [3] of over 10000 µg/mL. Also, the results for the IC50 (in data set [4]; in the data set filed under Homo sapiens) were 8 nM and 100 nM, respectively.
Consider `COC(=O)N1CC[C@H](C(=O)Nc2ccc(OCc3cc(C)nc4ccccc34)cc2)[C@@H](C(=O)NO)C1`, for which the results for the inhibitory constant (Ki) (on Interstitial collagenase; in data set [1]; in data set [2]) were over 4950 nM, 1110 nM and 767 nM, respectively. For the same molecule, the half-inhibitory concentration (IC50) in data set [4] was found to be 0.28 nM; in the data set filed under Homo sapiens it was 570 nM.
For `Cc1cc(COc2ccc(NC(=O)[C@@H]3[C@@H](C(=O)NO)CCCN3CC3CC3)cc2)c2ccccc2n1` the same measures were over 4950 nM, over 3330 nM, over 2130 nM, 1 nM and 400 nM.
As to `Cc1cc(COc2ccc(NC(=O)[C@@H]3[C@@H](C(=O)NO)CCCN3Cc3nccs3)cc2)c2ccccc2n1`, the values for the inhibition constant (Ki) (on Interstitial collagenase; in data set [1]; in data set [2]) were over 4950 nM, over 3330 nM and over 2130 nM, respectively. The values for the concentration for half-maximal inhibition (IC50) (in data set [4]; in the data set filed under Homo sapiens) were 1 nM and 1400 nM, respectively.
For `CC(=O)N1CC[C@H](C(=O)Nc2ccc(COc3ccnc4cc(C(F)(F)F)ccc34)cc2)[C@@H](C(=O)NO)C1` the same measures were over 4950 nM, over 3330 nM, over 2130 nM, 3.2 nM and 2600 nM.
For `Cc1cc(COc2ccc(NC(=O)[C@H]3CN(Cc4nccs4)CC[C@@H]3C(=O)NO)cc2)c2ccccc2n1` the same measures were over 4950 nM, over 3330 nM, over 2130 nM, 0.8 nM and 560 nM.
Regarding `Cc1cc(COc2ccc(NC(=O)[C@H]3CCN(C(=O)C4CC4)C[C@@H]3C(=O)NO)cc2)c2ccccc2n1`, in the data set with Caco-2, the apparent permeability coefficient (Papp) is 0.2 10e-6 cm s-1. The figures for the Ki (on Interstitial collagenase; in data set [1]; in data set [2]) were over 4950 nM, over 2450 nM and over 1660 nM, respectively. For the same molecule, the solubility in data set [3] amounted to 50 µg/mL (≈ 0.0995 mM). For the same molecule, the half-inhibitory concentration (IC50) in data set [4] is 0.45 nM; in the data set filed under Homo sapiens it was 390 nM.
For the molecule `O=C(NO)[C@H]1CN(C(=O)C2CC2)CC[C@@H]1C(=O)Nc1ccc(Oc2ccnc3ccccc23)cc1`, the inhibition constant Ki on Interstitial collagenase is over 4950 nM; in data set [1], over 3330 nM; in data set [2], over 2130 nM. Besides, the figures for the IC50 (in data set [4]; in the data set listed under Homo sapiens) were over 1000 nM and over 50000 nM, respectively.
The corresponding values for `O=C(NO)[C@H]1CN(C(=O)C2CC2)CC[C@@H]1C(=O)Nc1ccc(COc2ccnc3ccccc23)cc1` are over 4950 nM, over 3330 nM, over 2130 nM, 2 nM and 710 nM.
With `Cc1cc(COc2ccc(NC(=O)[C@H]3CCNC[C@@H]3C(=O)NO)cc2)c2ccccc2n1`, the inhibition constant Ki on Interstitial collagenase is over 4950 nM; in data set [1], over 3330 nM; in data set [2], over 2130 nM. In addition, the solubility in data set [3] was over 10000 µg/mL. In addition, the half-inhibitory concentration (IC50) in data set [4] was found to be 1.5 nM; in the data set filed under Homo sapiens it was 4300 nM.
For the molecule `Cc1cc(COc2ccc(NC(=O)[C@H]3CCN(C(=O)OCc4cscn4)C[C@@H]3C(=O)NO)cc2)c2ccccc2n1`, the inhibitory constant (Ki) at Interstitial collagenase was over 4950 nM; in data set [1], 476 nM; in data set [2], 296 nM. In addition, the IC50 in data set [4] is under 0.3 nM; in the data set listed under Homo sapiens, 530 nM.
The corresponding values for `Cc1cc(COc2ccc(NC(=O)[C@H]3CCN(C(=O)OCc4nccs4)C[C@@H]3C(=O)NO)cc2)c2ccccc2n1` are over 4950 nM, 1540 nM, 768 nM, under 0.3 nM and 450 nM.
In the case of `Cc1cc(COc2ccc(NC(=O)[C@H]3CCN(C(C)C)C[C@@H]3C(=O)NO)cc2)c2ccccc2n1`, the Ki is over 4950 nM on Interstitial collagenase, over 3330 nM in data set [1] and over 2130 nM in data set [2]. The same molecule gave a solubility in data set [3] of over 10000 µg/mL. In addition, the figures for the half-inhibitory concentration (IC50) (in data set [4]; in the data set filed under Homo sapiens) were 1.2 nM and 1200 nM, respectively.
`Cc1cc(COc2ccc(NC(=O)[C@H]3CN(C)CC[C@@H]3C(=O)NO)cc2)c2ccccc2n1`: the results for the inhibitory constant (Ki) (at Interstitial collagenase; in data set [1]; in data set [2]) were over 4950 nM, over 3330 nM and over 2130 nM, respectively. The values for the half-maximal inhibitory concentration (IC50) (in data set [4]; in the data set filed under Homo sapiens) were 5 nM and 100 nM, respectively.
With `Cc1cc(COc2ccc(NC(=O)[C@H]3CCN(C4CCC4)C[C@@H]3C(=O)NO)cc2)c2ccccc2n1`, the inhibition constant Ki is over 4950 nM at Interstitial collagenase, over 3330 nM in data set [1] and over 2130 nM in data set [2]. For the same molecule, the solubility in data set [3] is over 10000 µg/mL. The half-maximal inhibitory concentration (IC50) was 1.6 nM in data set [4] and 1100 nM in the data set filed under Homo sapiens.
`Cc1cc(COc2ccc(NC(=O)[C@H]3CNCC[C@@H]3C(=O)NO)cc2)c2ccccc2n1`: the Ki is over 4950 nM at Interstitial collagenase, over 3330 nM in data set [1] and over 2130 nM in data set [2]. In addition, in data set [3], the solubility was over 10000 µg/mL. Also, the results for the concentration for half-maximal inhibition (IC50) (in data set [4]; in the data set filed under Homo sapiens) were 3 nM and 530 nM, respectively.
Regarding `CC(=O)N1CC[C@H](C(=O)Nc2ccc(COc3ccnc4ccccc34)cc2)[C@@H](C(=O)NO)C1`, the inhibitory constant (Ki) at Interstitial collagenase was over 4950 nM; in data set [1], over 3330 nM; in data set [2], over 2130 nM. The figures for the IC50 (in data set [4]; in the data set listed under Homo sapiens) were 1 nM and 560 nM, respectively.
The corresponding values for `O=C(NO)[C@H]1CN(C(=O)c2ccco2)CC[C@@H]1C(=O)Nc1ccc(COc2ccnc3ccccc23)cc1` are over 4950 nM, over 3330 nM, over 2130 nM, 0.8 nM and 700 nM.
The corresponding values for `Cc1cc(COc2ccc(NC(=O)[C@H]3CCN(C(=O)OC4CC4)C[C@@H]3C(=O)NO)cc2)c2ccccc2n1` are over 4950 nM, 642 nM, 209 nM, 0.83 nM and 700 nM.
The corresponding values for `CCCC(=O)N1CC[C@H](C(=O)Nc2ccc(OCc3cc(C)nc4ccccc34)cc2)[C@@H](C(=O)NO)C1` are over 4950 nM, over 3330 nM, over 2130 nM, 0.26 nM and 330 nM.
`Cc1cc(COc2ccc(NC(=O)[C@H]3CCN(S(=O)(=O)c4cn(C)cn4)C[C@@H]3C(=O)NO)cc2)c2ccccc2n1`: the figures for the Ki (at Interstitial collagenase; in data set [1]; in data set [2]) were over 4950 nM, 1000 nM and 366 nM, respectively. In addition, the figures for the IC50 (in data set [4]; in the data set listed under Homo sapiens) were 0.31 nM and 1500 nM, respectively.
The corresponding values for `Cc1cc(COc2ccc(NC(=O)[C@H]3CCN(C(=O)NC(C)(C)C)C[C@@H]3C(=O)NO)cc2)c2ccccc2n1` are over 4950 nM, over 3330 nM, over 2130 nM, 0.41 nM and 560 nM.
For `Cc1cc(COc2ccc(NC(=O)[C@H]3CCN(S(C)(=O)=O)C[C@@H]3C(=O)NO)cc2)c2ccccc2n1` the same measures were over 4950 nM, 656 nM, 306 nM, 0.48 nM and 1360 nM.
For `Cc1cc(OCc2ccc(NC(=O)[C@H]3CCN(C(=O)c4ccco4)C[C@@H]3C(=O)NO)cc2)c2ccccc2n1` the same measures were over 4950 nM, over 3330 nM, over 2130 nM, 3 nM and 3400 nM.
In the case of `Cc1cc(COc2ccc(NC(=O)[C@H]3NCCC[C@@H]3C(=O)NO)cc2)c2ccccc2n1`, the values for the inhibitory constant (Ki) (on Interstitial collagenase; in data set [1]; in data set [2]) were over 4950 nM, over 3330 nM and over 2130 nM, respectively. Further, the figures for the IC50 (in data set [4]; in the data set filed under Homo sapiens) were 1 nM and 120 nM, respectively.
Turning to `Cc1cc(COc2ccc(NC(=O)[C@H]3CCN(C(=O)OC(C)C)C[C@@H]3C(=O)NO)cc2)c2ccccc2n1`, the Ki at Interstitial collagenase was over 4950 nM; in data set [1], 771 nM; in data set [2] it was 252 nM. In addition, the IC50 in data set [4] amounted to 0.44 nM; in the data set listed under Homo sapiens, 210 nM.
The corresponding values for `Cc1cc(COc2ccc(NC(=O)[C@@H]3[C@@H](C(=O)NO)CCCN3C)cc2)c2ccccc2n1` are over 4950 nM, over 3330 nM, over 2130 nM, 6.2 nM and 20 nM.
`O=C(NO)[C@H]1CCCC[C@@H]1C(=O)Nc1ccc(COc2ccnc3ccccc23)cc1`: the Ki at Interstitial collagenase is over 4950 nM; in data set [1] it was over 3330 nM; in data set [2] it was over 2130 nM. Moreover, the IC50 in the data set listed under Homo sapiens was over 50000 nM.
